{
  "source": "PubChem BioAssay AID328",
  "about": "(DTP/NCI, 2004)",
  "tested_on": "BDF1 mice, P388 leukemia ip, median survival T/C",
  "test": "NCI In Vivo Anticancer Drug Screen. Data for tumor model P388 Leukemia (intraperitoneal) in B6D2F1 (BDF1) mice",
  "settings": "endpoint: median survival time, higher = longer survival",
  "outline": "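Antitumour effect was judged in vivo: survival in drug-treated mice, normalised to that of vehicle-dosed controls, gives the reported T/C.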",
  "key": {"[1]": {"settings": "dose: 100.0 mg/kg/injection, schedule: Q01DX009 (ip), vehicle: saline with Tween-80"}, "[2]": {"settings": "dose: 100.0 mg/kg/injection, schedule: Q01DX009 (ip), vehicle: saline"}, "[3]": {"settings": "dose: 200.0 mg/kg/injection, schedule: Q01DX009 (ip), vehicle: saline with Tween-80"}, "[4]": {"settings": "dose: 400.0 mg/kg/injection, schedule: Q01DX009 (ip), vehicle: saline with Tween-80"}, "[5]": {"settings": "dose: 50.0 mg/kg/injection, schedule: Q01DX009 (ip), vehicle: saline with Tween-80"}, "[6]": {"settings": "dose: 100.0 mg/kg/injection, schedule: Q04DX003 (ip), vehicle: saline"}},
  "note": "Where “and” joins values, the source holds several entries; their conditions need not be identical. Equal entries are not always repeated. Toxic doses and inconclusive results are not listed. Residues, ends and D or L forms follow the SMILES beside them. *: point of attachment. For = O=C*",
  "data": [
    {"compound": "OC(CI)C(O)C(O)C(O)CI", "note": "(stereo unspecified)", "values": [
      {"measurement": "T/C", "setting": "[1]", "result": "108 % of control"},
      {"measurement": "T/C", "setting": "[2]", "result": "102 % of control"},
      {"measurement": "T/C", "setting": "[3]", "result": "102 % of control"},
      {"measurement": "T/C", "setting": "dose: 200.0 mg/kg/injection, schedule: Q01DX009 (ip), vehicle: saline", "result": "109 % of control"},
      {"measurement": "T/C", "setting": "dose: 300.0 mg/kg/injection, schedule: Q01DX009 (ip), vehicle: saline with Tween-80", "result": "150 % of control"},
      {"measurement": "T/C", "setting": "[4]", "result": "122 % of control"},
      {"measurement": "T/C", "setting": "dose: 400.0 mg/kg/injection, schedule: Q01DX009 (ip), vehicle: saline", "result": "109 % of control"},
      {"measurement": "T/C", "setting": "dose: 600.0 mg/kg/injection, schedule: Q01DX009 (ip), vehicle: saline", "result": "118 % of control"}
    ]},
    {"compound": "NC(=O)c1cc([N+](=O)[O-])c(Cl)c([N+](=O)[O-])c1", "values": [
      {"measurement": "T/C", "setting": "dose: 2.5 mg/kg/injection, schedule: Q01DX009 (ip), vehicle: Klucel (hydroxypropylcellulose) (HPC)", "result": "109 % of control"},
      {"measurement": "T/C", "setting": "dose: 5.0 mg/kg/injection, schedule: Q01DX009 (ip), vehicle: Klucel (hydroxypropylcellulose) (HPC)", "result": "109 % of control"},
      {"measurement": "T/C", "setting": "dose: 10.0 mg/kg/injection, schedule: Q01DX009 (ip), vehicle: Klucel (hydroxypropylcellulose) (HPC)", "result": "104 % of control and 105 % of control"},
      {"measurement": "T/C", "setting": "dose: 10.0 mg/kg/injection, schedule: Q04DX003 (ip), vehicle: Klucel (hydroxypropylcellulose) (HPC)", "result": "100 % of control"},
      {"measurement": "T/C", "setting": "dose: 40.0 mg/kg/injection, schedule: Q04DX003 (ip), vehicle: Klucel (hydroxypropylcellulose) (HPC)", "result": "90 % of control"}
    ]},
    {"compound": "CC(C)NC(=O)N(C(=O)C(F)(F)F)C(C)C", "values": [
      {"measurement": "T/C", "setting": "[5]", "result": "105 % of control"},
      {"measurement": "T/C", "setting": "[1]", "result": "94 % of control"},
      {"measurement": "T/C", "setting": "[3]", "result": "95 % of control"}
    ]},
    {"compound": "O=C(Nc1ccc(NC(=O)c2ccccc2)c(Sc2ccccc2)c1Sc1ccccc1)c1ccccc1", "values": [
      {"measurement": "T/C", "setting": "dose: 100.0 mg/kg/injection, schedule: Q01DX001 (ip), vehicle: saline with Tween-80", "result": "90 % of control"},
      {"measurement": "T/C", "setting": "dose: 400.0 mg/kg/injection, schedule: Q01DX001 (ip), vehicle: saline with Tween-80", "result": "100 % of control"}
    ]},
    {"compound": "c1ccc(-c2nc3ccccc3nc2-c2ccc(-c3ccc(-c4nc5ccccc5nc4-c4ccccc4)cc3)cc2)cc1", "values": [
      {"measurement": "T/C", "setting": "[5]", "result": "88 % of control"},
      {"measurement": "T/C", "setting": "[3]", "result": "88 % of control"}
    ]},
    {"compound": "COCC1OC(OC2OCC3OC4(OCC(O)(C(C)OC)C5OCOC54)OC3C2OC)C(OC)C(O)C1OC1OC(C)C(OC)C(OC2OC(C)C3OC4(CC(O)C(OC5CC(OC6CC(C)([N+](=O)[O-])C(OC)C(C)O6)C(OC(=O)c6c(C)c(Cl)c(O)c(Cl)c6OC)C(C)O5)C(C)O4)OC3(C)C2O)C1O", "note": "(stereo unspecified)", "values": [
      {"measurement": "T/C", "setting": "dose: 12.5 mg/kg/injection, schedule: Q01DX009 (ip), vehicle: saline", "result": "115 % of control"}
    ]},
    {"compound": "CCOc1ccc(S(=O)(=O)O)c2cccnc12", "values": [
      {"measurement": "T/C", "setting": "[6]", "result": "105 % of control"},
      {"measurement": "T/C", "setting": "dose: 200.0 mg/kg/injection, schedule: Q04DX003 (ip), vehicle: saline", "result": "105 % of control"},
      {"measurement": "T/C", "setting": "dose: 400.0 mg/kg/injection, schedule: Q04DX003 (ip), vehicle: saline", "result": "105 % of control"}
    ]},
    {"compound": "COC(=O)C(CC(C)C)NC(=O)C(Cc1ccc(O)cc1)NC=O", "note": "(stereo not drawn) (For-Tyr-Leu-OMe; configuration not given here)", "values": [
      {"measurement": "T/C", "setting": "[1]", "result": "99 % of control"},
      {"measurement": "T/C", "setting": "dose: 100.0 mg/kg/injection, schedule: Q04DX003 (ip), vehicle: saline with Tween-80", "result": "105 % of control"},
      {"measurement": "T/C", "setting": "[3]", "result": "115 % of control"},
      {"measurement": "T/C", "setting": "dose: 200.0 mg/kg/injection, schedule: Q04DX003 (ip), vehicle: saline with Tween-80", "result": "110 % of control"},
      {"measurement": "T/C", "setting": "[4]", "result": "106 % of control"},
      {"measurement": "T/C", "setting": "dose: 400.0 mg/kg/injection, schedule: Q04DX003 (ip), vehicle: saline with Tween-80", "result": "112 % of control"}
    ]},
    {"compound": "COC(=O)C1=COC2OC3C(C(C)O)C(=O)OC34C=CC1C24", "note": "(stereo unspecified)", "values": [
      {"measurement": "T/C", "setting": "dose: 0.04 mg/kg/injection, schedule: Q01DX009 (ip), vehicle: saline + alcohol", "result": "90 % of control"},
      {"measurement": "T/C", "setting": "dose: 0.2 mg/kg/injection, schedule: Q01DX009 (ip), vehicle: saline + alcohol", "result": "95 % of control"},
      {"measurement": "T/C", "setting": "dose: 1.0 mg/kg/injection, schedule: Q01DX009 (ip), vehicle: saline + alcohol", "result": "118 % of control"},
      {"measurement": "T/C", "setting": "dose: 5.0 mg/kg/injection, schedule: Q01DX009 (ip), vehicle: saline + alcohol", "result": "118 % of control"}
    ]},
    {"compound": "NC(N)=NC(N)=Nc1cnccn1", "values": [
      {"measurement": "T/C", "setting": "dose: 25.0 mg/kg/injection, schedule: Q01DX009 (ip), vehicle: saline", "result": "110 % of control"},
      {"measurement": "T/C", "setting": "dose: 25.0 mg/kg/injection, schedule: Q04DX003 (ip), vehicle: saline", "result": "100 % of control"},
      {"measurement": "T/C", "setting": "dose: 50.0 mg/kg/injection, schedule: Q01DX009 (ip), vehicle: saline", "result": "120 % of control"},
      {"measurement": "T/C", "setting": "dose: 50.0 mg/kg/injection, schedule: Q04DX003 (ip), vehicle: saline", "result": "100 % of control"},
      {"measurement": "T/C", "setting": "[2]", "result": "120 % of control"},
      {"measurement": "T/C", "setting": "[6]", "result": "95 % of control"}
    ]},
    {"compound": "O=[N+]([O-])c1ccc(Sc2ccccc2)c2nonc12", "values": [
      {"measurement": "T/C", "setting": "dose: 12.5 mg/kg/injection, schedule: Q01DX009 (ip), vehicle: saline with Tween-80", "result": "88 % of control"},
      {"measurement": "T/C", "setting": "dose: 25.0 mg/kg/injection, schedule: Q01DX009 (ip), vehicle: saline with Tween-80", "result": "107 % of control"},
      {"measurement": "T/C", "setting": "[5]", "result": "116 % of control"}
    ]},
    {"compound": "COC1(C)CCC(C=O)C(C#N)(C#N)C1(C#N)C#N", "note": "(stereo unspecified)", "values": [
      {"measurement": "T/C", "setting": "dose: 12.5 mg/kg/injection, schedule: Q01DX001 (ip), vehicle: saline with Tween-80", "result": "98 % of control"},
      {"measurement": "T/C", "setting": "dose: 25.0 mg/kg/injection, schedule: Q01DX001 (ip), vehicle: saline with Tween-80", "result": "100 % of control"},
      {"measurement": "T/C", "setting": "dose: 50.0 mg/kg/injection, schedule: Q01DX001 (ip), vehicle: saline with Tween-80", "result": "104 % of control"}
    ]}
  ]
}
